From ChEMBL document CHEMBL5291721, “A preclinical secondary pharmacology resource illuminates target-adverse drug reaction associations of marketed drugs” (Nat Commun, 2023)
*1 amine or outer side, *2 acyl side, *3 side chain or, on linkers, in order; H or OH if unused. Where a SMILES comes first, the peptide text is derived from it. Bridges are numbered along the chain shown (N, C = ends). [ ]: non-standard residue; d: D form. The star is where a group is joined. hTyr(3S-OH,4S-OH,3'-OSO3H) = N[C@H](C(=O)O)[C@H](O)[C@@H](O)c1ccc(O)c(OS(=O)(=O)O)c1; Orn(4R-OH,5R-OH) = O=C([C@H](C[C@@H](O)[C@@H](O)N[*:3])N[*:1])[*:2]; Pro(3S-OH,4S-Me) = C[C@H]1CN[C@H](C(=O)O)[C@H]1O; X1 = CCCCCOc1ccc(-c2cc(-c3ccc(C(=O)*)cc3)no2)cc1; Gln(3R-OH) = NC(=O)C[C@@H](O)[C@H](N)C(=O)O; Hyp = O=C(O)[C@@H]1C[C@@H](O)CN1

Experiments:
Progesterone receptor = target: T1, Progesterone receptor (Homo sapiens, UniProt P06401)
T1 sequence (P06401 whole entry): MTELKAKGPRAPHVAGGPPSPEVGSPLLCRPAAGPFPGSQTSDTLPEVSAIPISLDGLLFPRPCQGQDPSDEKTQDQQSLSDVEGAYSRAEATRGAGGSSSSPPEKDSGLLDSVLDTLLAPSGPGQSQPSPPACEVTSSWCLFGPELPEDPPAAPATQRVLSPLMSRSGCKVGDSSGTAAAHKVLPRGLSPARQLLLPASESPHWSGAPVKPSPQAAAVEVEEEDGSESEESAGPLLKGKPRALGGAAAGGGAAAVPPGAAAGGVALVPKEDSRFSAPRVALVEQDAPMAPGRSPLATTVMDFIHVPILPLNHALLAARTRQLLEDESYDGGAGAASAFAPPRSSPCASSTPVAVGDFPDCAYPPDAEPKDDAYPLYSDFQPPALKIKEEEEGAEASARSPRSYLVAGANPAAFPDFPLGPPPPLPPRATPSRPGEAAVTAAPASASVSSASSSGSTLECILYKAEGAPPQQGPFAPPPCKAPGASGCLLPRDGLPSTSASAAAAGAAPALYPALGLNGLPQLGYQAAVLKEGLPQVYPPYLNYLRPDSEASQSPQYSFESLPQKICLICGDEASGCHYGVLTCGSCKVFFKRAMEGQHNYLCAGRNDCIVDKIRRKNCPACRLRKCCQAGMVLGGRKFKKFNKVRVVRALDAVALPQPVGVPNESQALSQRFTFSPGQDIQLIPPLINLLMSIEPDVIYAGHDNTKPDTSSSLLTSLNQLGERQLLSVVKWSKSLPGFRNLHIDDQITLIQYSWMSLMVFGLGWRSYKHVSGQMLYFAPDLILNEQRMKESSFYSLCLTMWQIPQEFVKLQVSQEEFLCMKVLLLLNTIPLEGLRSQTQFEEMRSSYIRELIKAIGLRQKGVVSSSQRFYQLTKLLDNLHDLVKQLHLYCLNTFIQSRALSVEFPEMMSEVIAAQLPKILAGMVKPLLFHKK

Cannabinoid receptor 1 = Cannabinoid receptor 1 (Homo sapiens, UniProt P21554); format: functional, cell-based
Sequence of Cannabinoid receptor 1 (P21554 whole entry): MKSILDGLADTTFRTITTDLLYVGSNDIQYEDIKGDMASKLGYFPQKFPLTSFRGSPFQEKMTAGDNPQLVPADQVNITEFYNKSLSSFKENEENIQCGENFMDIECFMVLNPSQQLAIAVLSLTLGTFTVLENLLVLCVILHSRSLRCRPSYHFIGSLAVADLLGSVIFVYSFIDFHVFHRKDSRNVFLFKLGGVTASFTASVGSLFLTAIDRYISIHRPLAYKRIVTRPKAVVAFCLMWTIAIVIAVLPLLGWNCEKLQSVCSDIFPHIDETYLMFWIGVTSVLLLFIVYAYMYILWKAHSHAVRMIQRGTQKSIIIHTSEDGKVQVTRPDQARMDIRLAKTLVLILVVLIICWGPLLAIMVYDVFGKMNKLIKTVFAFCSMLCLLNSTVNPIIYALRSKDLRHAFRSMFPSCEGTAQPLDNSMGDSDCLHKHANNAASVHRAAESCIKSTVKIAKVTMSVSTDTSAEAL

[1] = target: Neuronal acetylcholine receptor subunit alpha-4 (Homo sapiens, UniProt P43681)
Sequence of Neuronal acetylcholine receptor subunit alpha-4 (P43681 whole entry): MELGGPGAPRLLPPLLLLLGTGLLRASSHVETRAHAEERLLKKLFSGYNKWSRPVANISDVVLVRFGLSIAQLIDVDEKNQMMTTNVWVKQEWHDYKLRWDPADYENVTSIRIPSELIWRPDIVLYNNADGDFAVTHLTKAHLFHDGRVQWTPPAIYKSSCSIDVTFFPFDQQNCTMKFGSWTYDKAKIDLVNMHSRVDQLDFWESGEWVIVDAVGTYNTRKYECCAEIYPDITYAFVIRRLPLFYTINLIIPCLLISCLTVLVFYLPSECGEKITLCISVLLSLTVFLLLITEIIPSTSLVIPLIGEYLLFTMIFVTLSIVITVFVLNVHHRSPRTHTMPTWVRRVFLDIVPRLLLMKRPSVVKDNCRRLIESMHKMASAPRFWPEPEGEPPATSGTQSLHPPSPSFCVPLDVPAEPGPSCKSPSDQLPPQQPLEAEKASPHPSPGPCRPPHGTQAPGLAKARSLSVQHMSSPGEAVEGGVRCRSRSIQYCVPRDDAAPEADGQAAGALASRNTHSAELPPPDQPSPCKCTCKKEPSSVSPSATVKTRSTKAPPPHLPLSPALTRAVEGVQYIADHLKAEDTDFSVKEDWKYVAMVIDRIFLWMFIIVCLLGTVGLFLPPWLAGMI

[2] = target: Delta-type opioid receptor (Homo sapiens, UniProt P41143)
Sequence of Delta-type opioid receptor (P41143 whole entry): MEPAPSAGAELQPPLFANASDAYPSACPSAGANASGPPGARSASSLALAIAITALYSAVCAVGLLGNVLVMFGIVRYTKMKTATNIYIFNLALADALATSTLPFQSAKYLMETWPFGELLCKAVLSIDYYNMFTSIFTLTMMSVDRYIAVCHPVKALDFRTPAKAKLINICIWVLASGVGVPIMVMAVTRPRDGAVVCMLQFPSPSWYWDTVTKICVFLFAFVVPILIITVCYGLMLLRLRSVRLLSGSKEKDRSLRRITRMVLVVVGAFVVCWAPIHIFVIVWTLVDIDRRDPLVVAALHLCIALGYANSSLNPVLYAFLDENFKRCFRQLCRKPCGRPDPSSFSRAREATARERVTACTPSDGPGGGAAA

[3] = target: T2, Prostaglandin G/H synthase 1 (Rattus norvegicus, UniProt Q63921); format: functional
T2 sequence (Q63921 whole entry): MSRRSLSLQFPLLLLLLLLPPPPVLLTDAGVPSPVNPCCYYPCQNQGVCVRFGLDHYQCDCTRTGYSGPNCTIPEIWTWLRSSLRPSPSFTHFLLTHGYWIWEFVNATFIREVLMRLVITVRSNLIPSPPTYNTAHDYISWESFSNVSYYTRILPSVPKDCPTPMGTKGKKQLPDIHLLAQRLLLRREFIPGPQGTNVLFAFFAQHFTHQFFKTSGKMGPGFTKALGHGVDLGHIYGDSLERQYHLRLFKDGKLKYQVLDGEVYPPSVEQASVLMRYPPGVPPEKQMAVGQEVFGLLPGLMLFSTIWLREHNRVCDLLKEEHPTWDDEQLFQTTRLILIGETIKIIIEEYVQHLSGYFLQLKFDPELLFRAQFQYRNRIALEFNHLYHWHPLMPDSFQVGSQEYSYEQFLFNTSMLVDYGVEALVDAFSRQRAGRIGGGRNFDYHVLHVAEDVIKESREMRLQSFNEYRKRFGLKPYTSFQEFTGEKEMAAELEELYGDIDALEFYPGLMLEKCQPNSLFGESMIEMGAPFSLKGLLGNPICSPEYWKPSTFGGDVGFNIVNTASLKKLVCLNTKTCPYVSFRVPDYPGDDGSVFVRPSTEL

Endothelin-1 receptor = target: T3, Endothelin-1 receptor (Homo sapiens, UniProt P25101)
T3 sequence (P25101 whole entry): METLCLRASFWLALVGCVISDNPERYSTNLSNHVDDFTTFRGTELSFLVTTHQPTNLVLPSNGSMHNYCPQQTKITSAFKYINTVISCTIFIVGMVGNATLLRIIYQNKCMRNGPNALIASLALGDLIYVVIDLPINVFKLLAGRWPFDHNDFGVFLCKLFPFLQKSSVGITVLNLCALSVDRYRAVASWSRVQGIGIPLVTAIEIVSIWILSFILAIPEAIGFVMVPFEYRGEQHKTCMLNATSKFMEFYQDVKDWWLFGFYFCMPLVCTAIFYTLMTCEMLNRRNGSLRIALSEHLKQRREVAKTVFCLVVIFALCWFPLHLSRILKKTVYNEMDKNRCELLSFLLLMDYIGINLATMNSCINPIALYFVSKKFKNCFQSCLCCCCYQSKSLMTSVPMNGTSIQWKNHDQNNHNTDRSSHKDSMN

[4] = target: Glutamate receptor ionotropic, NMDA 1 (Rattus norvegicus, UniProt P35439)
[5] = target: 5-hydroxytryptamine receptor 2B (Homo sapiens, UniProt P41595); format: functional, cell-based
Sequence of 5-hydroxytryptamine receptor 2B (P41595 whole entry): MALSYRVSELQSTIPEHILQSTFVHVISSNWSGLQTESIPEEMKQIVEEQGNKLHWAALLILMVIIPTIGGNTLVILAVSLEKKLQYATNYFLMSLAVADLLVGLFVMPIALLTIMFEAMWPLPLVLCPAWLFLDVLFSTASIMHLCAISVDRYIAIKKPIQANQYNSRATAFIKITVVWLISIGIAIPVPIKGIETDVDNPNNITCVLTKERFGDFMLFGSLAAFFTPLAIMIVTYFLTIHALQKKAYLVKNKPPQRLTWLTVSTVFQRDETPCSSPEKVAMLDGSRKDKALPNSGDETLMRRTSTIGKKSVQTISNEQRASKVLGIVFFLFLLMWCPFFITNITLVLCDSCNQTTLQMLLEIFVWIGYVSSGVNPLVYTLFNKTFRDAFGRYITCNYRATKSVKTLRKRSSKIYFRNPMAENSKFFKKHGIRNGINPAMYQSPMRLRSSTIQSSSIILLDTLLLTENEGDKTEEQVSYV

[6] = target: Beta-1 adrenergic receptor (Homo sapiens, UniProt P08588); format: functional
Sequence of Beta-1 adrenergic receptor (P08588 whole entry): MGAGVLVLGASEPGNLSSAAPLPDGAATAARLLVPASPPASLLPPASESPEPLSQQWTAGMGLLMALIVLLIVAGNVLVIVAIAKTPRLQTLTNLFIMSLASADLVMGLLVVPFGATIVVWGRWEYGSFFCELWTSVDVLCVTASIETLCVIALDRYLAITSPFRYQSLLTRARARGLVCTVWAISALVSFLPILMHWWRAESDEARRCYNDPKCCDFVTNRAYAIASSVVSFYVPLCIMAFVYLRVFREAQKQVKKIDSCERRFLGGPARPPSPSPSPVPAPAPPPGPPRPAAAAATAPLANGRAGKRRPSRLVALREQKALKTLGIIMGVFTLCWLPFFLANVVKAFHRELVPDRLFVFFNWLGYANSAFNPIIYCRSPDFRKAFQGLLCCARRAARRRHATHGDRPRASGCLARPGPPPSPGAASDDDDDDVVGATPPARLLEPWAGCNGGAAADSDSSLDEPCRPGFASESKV
Further: assay procedure not described here.

CC(C)(N)C(=O)N[C@H](Cc1c[nH]c2ccccc12)C(=O)N[C@H](Cc1c[nH]c2ccccc12)NC=O [MACIMORELIN]
AC50 (Progesterone receptor): > 30 µM

C=C1c2c(Cl)ccc(O)c2C(=O)C2=C(O)[C@]3(O)C(=O)C(C(N)=O)=C(O)[C@@H](N(C)C)[C@@H]3[C@@H](O)[C@H]12 [MECLOCYCLINE]
AC50 (Progesterone receptor): > 30 µM

Cc1cc2c(OCC(O)CNC(C)C)cccc2[nH]1 (configuration not stated) [MEPINDOLOL]
AC50 (Progesterone receptor): > 30 µM

CC[C@@H](CO)NC(=O)[C@@H]1C=C2c3cccc4[nH]cc(c34)C[C@H]2N(C)C1 [METHYLERGONOVINE]
AC50 (Cannabinoid receptor 1): > 30 µM
AC50 [1]: > 30 µM
AC50 [2]: > 30 µM
AC50 [3]: > 30 µM
AC50 (Endothelin-1 receptor): > 30 µM
AC50 [4]: > 30 µM

CCCCCOc1ccc(-c2cc(-c3ccc(C(=O)N[C@H]4C[C@@H](O)[C@@H](O)NC(=O)[C@@H]5[C@@H](O)[C@@H](C)CN5C(=O)[C@H]([C@H](O)CC(N)=O)NC(=O)[C@H]([C@H](O)[C@@H](O)c5ccc(O)c(OS(=O)(=O)O)c5)NC(=O)[C@@H]5C[C@@H](O)CN5C(=O)[C@H]([C@@H](C)O)NC4=O)cc3)no2)cc1 [MICAFUNGIN] (X1-[Orn(4R-OH,5R-OH)]T[Hyp][hTyr(3S-OH,4S-OH,3'-OSO3H)][Gln(3R-OH)][Pro(3S-OH,4S-Me)]; lactam 1-C)
AC50 (Progesterone receptor): 3.87 µM

CCOc1cc(N)c(Cl)cc1C(=O)NCC1CN(Cc2ccc(F)cc2)CCO1 (configuration not stated) [MOSAPRIDE]
AC50 (Progesterone receptor): > 30 µM

CCOc1ccc2ccccc2c1C(=O)N[C@@H]1C(=O)N2[C@@H]1SC(C)(C)[C@@H]2C(=O)O [NAFCILLIN]
AC50 (Progesterone receptor): > 30 µM

CN1CCC[C@H]1c1cccnc1 [NICOTINE]
AC50 (Progesterone receptor): > 30 µM

CNCCC=C1c2ccccc2CCc2ccccc21 [NORTRIPTYLINE]
AC50 [1]: > 30 µM
AC50 [2]: > 30 µM
AC50 [3]: > 30 µM
AC50 (Endothelin-1 receptor): > 30 µM
AC50 [5]: 0.73 µM

CCCCCCCCCCC[C@@H](C[C@@H]1OC(=O)[C@H]1CCCCCC)OC(=O)[C@H](CC(C)C)NC=O [ORLISTAT]
AC50 (Progesterone receptor): > 30 µM

O=C1[C@H]2CCCC[C@H]2C(=O)N1CCCCN1CCN(c2nsc3ccccc23)CC1 [PEROSPIRONE]
AC50 (Progesterone receptor): > 30 µM

CN(C)CCC(c1ccccc1)c1ccccn1 (configuration not stated) [PHENIRAMINE]
AC50 (Progesterone receptor): > 30 µM

CC(C)COc1ccc(CNC(=O)N(Cc2ccc(F)cc2)C2CCN(C)CC2)cc1 [PIMAVANSERIN]
AC50 (Progesterone receptor): > 30 µM

CC(C)[N+](C)(CCOC(=O)C1c2ccccc2Oc2ccccc21)C(C)C [PROPANTHELINE]
AC50 (Progesterone receptor): > 30 µM

NC(=O)c1ncn([C@@H]2O[C@H](CO)[C@@H](O)[C@H]2O)n1 [RIBAVIRIN]
AC50 (Cannabinoid receptor 1): > 30 µM
AC50 [1]: > 10 µM
AC50 [2]: > 30 µM
AC50 [3]: > 10 µM
AC50 [6]: > 10 µM
AC50 [4]: > 10 µM
AC50 [5]: > 10 µM

CN(C)C(=O)c1nc(CNC(=O)CN)n(-c2ccc(Cl)cc2C(=O)c2ccccc2Cl)n1 [RILMAZAFONE]
AC50 (Progesterone receptor): > 30 µM

CC[C@H]1OC(=O)[C@H](C)[C@@H](O[C@H]2C[C@@](C)(OC)[C@@H](O)[C@H](C)O2)[C@H](C)[C@@H](O[C@@H]2O[C@H](C)C[C@H](N(C)C)[C@H]2O)[C@](C)(O)C[C@@H](C)/C(=N\OCOCCOC)[C@H](C)[C@@H](O)[C@]1(C)O [ROXITHROMYCIN]
AC50 (Cannabinoid receptor 1): > 30 µM
AC50 [1]: > 30 µM
AC50 [2]: > 30 µM
AC50 [3]: > 30 µM
AC50 (Endothelin-1 receptor): > 30 µM
AC50 [6]: > 30 µM
AC50 [5]: > 30 µM

NC(=O)NS(=O)(=O)c1ccc(N)cc1 [SULFACARBAMIDE]
AC50 (Progesterone receptor): > 30 µM

CCCCCCCCNC(C)C(O)c1ccc(SC(C)C)cc1 (configuration not stated) [SULOCTIDIL]
AC50 (Progesterone receptor): > 30 µM

NCCc1ccc(O)cc1 [TYRAMINE]
AC50 (Progesterone receptor): > 30 µM

CCCCCCCCCCCCCCCC(=O)OC/C=C(C)/C=C/C=C(C)/C=C/C1=C(C)CCCC1(C)C [VITAMIN A PALMITATE]
AC50 (Progesterone receptor): > 30 µM
